The record followed here is patent US11712438B2, “Phenyl derivatives as PGE2 receptor modulators” (IDORSIA PHARMACEUTICALS LTD, priority 2017, dated 2023).

Common to all, as to assay: cell-based
In assay [1] the target is PTRGER4 (EP4) (Homo sapiens, UniProt P35408).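 Also: assay plate preincubated 15 min at 37 °C, after which PGE2 was added at 20 nM final and incubation continued 120 min at 37 °C.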
The target of assay [2] is EP4 (Homo sapiens, UniProt P35408).
The target in assay [3] is EP2 (Homo sapiens, UniProt P43116).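 Also: SF295 glioblastoma cells with endogenous EP2 only, PGE2-stimulated cAMP accumulation read by HTRF competitive immunoassay, 45 min pre-incubation then 30 min at room temperature, IBMX in buffer.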
Procedure: The antagonistic activities of the compounds of formula (I) on the EP2 and EP4 receptors are also determined in accordance with the following experimental method.
Human tumor cell lines expressing endogenously either EP4 or EP2 are used and cAMP accumulation in cells upon PGE2 stimulation is monitored. SF295 glioblastoma cells express high endogenous EP2 and no EP4,whereas BT549 breast cancer cells, express high endogenous EP4 levels and very low EP2 levels.
As a detection method for cAMP the HTRF (homogeneous time resolved fluorescence) Cisbio kit (HTRF cAMP dynamic 2 kit 20′000 tests Cisbio Cat. #62AM4PEC) was used, which is based on a competitive immunoassay using a Cryptate-labeled anti-cAMP antibody and d2-labeled cAMP. Native cAMP produced by cells or unlabeled cAMP (for the standard curve) compete with exogenously added d2-labeled cAMP (acceptor) for binding to monoclonal anti-cAMP-Eu3+ Cryptate (donor). A FRET signal (Fluorescence Resonance Energy Transfer) is obtained only if the labeled anti-cAMP antibody binds the d2 labelled cAMP, thus the specific signal (i.e. energy transfer) is inversely proportional to the concentration of cAMP in the standard or sample.
The SF295 cells (NCI/No. 0503170) are detached from culture dishes with a cell dissociation buffer (Invitrogen, 13151-014), and collected in growing medium (GM: RPM11640 (Invitrogen 21875)/10% FCS, 1% Penicilin/streptomycin). Cells are counted washed and resuspended in assay buffer (AB; HBSS, 20 mM HEPES, 0.2% BSA; 2 mM IBMX). 4′000 cells in 5 μl of AB are seeded per well of a small volume 384 well plate (black with flat bottom, Greiner 784076).
PGE2 (Cayman 14010, stock solution: 750 in DMSO) is used as agonist at 75 nM final concentration, corresponding to EC80.
Two point five microliters of diluted compounds are transferred into the assay plate. Plate is pre-incubated 45 minutes at room temperature. Subsequently, 2.5 microliters of PGE2 (final conc. 75 nM) are transferred into the assay plate. Plate is incubated 30 minutes at room temperature.
For each compound concentration the percentage of cAMP compared to DMSO control value as average±STDEV (each concentration is measured in duplicate) is calculated.
Assay [4] deals with PTGER2 (EP2) (Homo sapiens, UniProt P43116).

What is called IC50 is the concentration that inhibits the measured activity by half. Read a low IC50 as greater potency in that assay.

PTGER2 (EP2), sequence (P43116 whole entry): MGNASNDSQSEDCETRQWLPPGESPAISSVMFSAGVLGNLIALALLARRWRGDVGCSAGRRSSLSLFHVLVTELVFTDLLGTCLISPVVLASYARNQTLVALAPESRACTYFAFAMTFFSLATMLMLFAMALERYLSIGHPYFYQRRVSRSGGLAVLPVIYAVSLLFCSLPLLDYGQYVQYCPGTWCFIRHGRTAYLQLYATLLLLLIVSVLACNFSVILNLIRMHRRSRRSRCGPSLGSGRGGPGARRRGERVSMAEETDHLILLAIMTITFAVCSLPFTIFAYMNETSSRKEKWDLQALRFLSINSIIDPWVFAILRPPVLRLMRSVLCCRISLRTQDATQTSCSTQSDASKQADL
EP2, sequence (P43116 whole entry): as above
EP4, sequence (P35408 whole entry): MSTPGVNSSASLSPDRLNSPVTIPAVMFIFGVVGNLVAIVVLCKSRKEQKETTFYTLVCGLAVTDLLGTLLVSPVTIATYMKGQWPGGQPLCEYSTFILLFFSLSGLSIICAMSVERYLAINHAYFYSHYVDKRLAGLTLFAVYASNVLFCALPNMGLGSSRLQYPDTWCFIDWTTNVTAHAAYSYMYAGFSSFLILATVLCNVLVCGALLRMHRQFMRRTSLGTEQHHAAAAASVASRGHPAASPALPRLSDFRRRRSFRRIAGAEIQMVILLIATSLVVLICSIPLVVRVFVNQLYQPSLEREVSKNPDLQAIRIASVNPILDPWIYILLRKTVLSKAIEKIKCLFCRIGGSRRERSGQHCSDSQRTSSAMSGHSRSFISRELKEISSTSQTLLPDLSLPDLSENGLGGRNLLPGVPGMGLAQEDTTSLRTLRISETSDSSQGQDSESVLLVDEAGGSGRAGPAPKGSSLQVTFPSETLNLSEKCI
PTRGER4 (EP4), sequence (P35408 whole entry): as above

For `CCOc1cc(-c2cc(NCCc3ccc(Br)cc3)ncn2)sc1CC(N)=O` [Example 287, 2-(5-{6-[2-(4-Bromo-phenyl)-ethylamino]-pyrimidin-4-yl}-3-ethoxy-thiophen-2-yl)-acetamide], the IC50 turned out to be 315 nM in assay [1], 1210 nM in assay [2] and 868 nM in assay [3].

`CCOc1cc(-c2cc(NCCc3ccc(Br)cc3)ncn2)sc1-c1noc(C2COC2)n1` [Example 142, [2-(4-Bromo-phenyl)-ethyl]-{6-[4-ethoxy-5-(5-oxetan-3-yl-[1,2,4]oxadiazol-3-yl)-thiophen-2-yl]-pyrimidin-4-yl}-amine]: the values for the IC50 in assay [2] and in assay [3] were 571 nM and 700 nM, respectively.

On to `CCOc1cc(-c2cc(NCCc3ccc(SC)cc3OC)ncn2)sc1C(=O)O` [Example 4, 3-Ethoxy-5-{6-[2-(2-methoxy-4-methylsulfanyl-phenyl)-ethylamino]-pyrimidin-4-yl}-thiophene-2-carboxylic acid], for which the figures for the IC50 in assay [2] and in assay [3] were 5 nM and 38 nM, respectively.

On to `Oc1c(F)cc(-c2cc(NCCc3ccc(Br)cc3)ncn2)cc1F` [Example 12, 4-{6-[2-(4-Bromo-phenyl)-ethylamino]-pyrimidin-4-yl}-2,6-difluoro-phenol], for which the values for the IC50 in assay [2] and in assay [3] were 617 nM and 885 nM, respectively.

For `CC(C(=O)O)c1ccc(-c2cc(NCCc3ccc(Br)cc3)ncn2)s1` (racemic) [Example 159, rac-2-(5-{6-[2-(4-Bromo-phenyl)-ethylamino]-pyrimidin-4-yl}-thiophen-2-yl)-propionic acid], the IC50 was 602 nM in assay [2] and 392 nM in assay [3].

For the molecule `CCOc1cc(-c2cc(NCCc3ccc(F)cc3)ncn2)sc1C(=O)O` [Example 80, 3-Ethoxy-5-{6-[2-(4-fluoro-phenyl)-ethylamino]-pyrimidin-4-yl}-thiophene-2-carboxylic acid], the values for the 50% inhibitory concentration (IC50) in assay [2] and in assay [3] were 366 nM and 255 nM, respectively.

As for `CCOc1cc(-c2cc(NCCc3ccc(Br)cc3Cl)ncn2)sc1-c1noc(=O)[nH]1` [Example 124, 3-(5-{6-[2-(4-Bromo-2-chloro-phenyl)-ethylamino]-pyrimidin-4-yl}-3-ethoxy-thiophen-2-yl)-[1,2,4]oxadiazol-5(4H)-one], the values for the IC50 in assay [2] and in assay [3] were 36 nM and 46 nM, respectively.

Consider `CCOc1cc(-c2cc(NCCc3ccc(Br)cc3N(C)C)ncn2)sc1-c1noc(=O)[nH]1` [Example 109, 3-(5-{6-[2-(4-Bromo-2-dimethylamino-phenyl)-ethylamino]-pyrimidin-4-yl}-3-ethoxy-thiophen-2yl)-[1,2,4]oxadiazol-5(4H)-one], for which the IC50 in assay [2] stood at 254 nM; in assay [3], 558 nM.

As for `O=c1[nH]c(-c2cccc(-c3cc(NCCc4ccc(Br)cc4)ncn3)c2)no1` [Example 147, 3-(3-{6-[2-(4-Bromo-phenyl)-ethylamino]-pyrimidin-4-yl}-phenyl)-[1,2,4]oxadiazol-5(4H)-one], the IC50 in assay [2] was determined as 834 nM; in assay [3], 490 nM.

Take `COc1cc(-c2cc(NCCc3ccc(Br)cc3)ncn2)ccc1OCCO` [Example 16, 2-(4-{6-[2-(4-Bromo-phenyl)-ethylamino]-pyrimidin-4-yl}-2-methoxy-phenoxy)-ethanol]: the IC50 in assay [2] was 914 nM; in assay [3], 795 nM.

As to `COc1cc(SC)ccc1CCNc1cc(-c2ccc(C(=O)O)c(OC3CCC3)c2)ncn1` [Example 8, 2-Cyclobutoxy-4-{6-[2-(2-methoxy-4-methylsulfanyl-phenyl)-ethylamino]-pyrimidin-4-yl}-benzoic acid], the IC50 was 262 nM in assay [2] and 340 nM in assay [3].

Regarding `COc1cc(-c2cc(NCCc3ccc(Br)cc3)ncn2)ccc1O` [Example 10, 4-{6-[2-(4-Bromo-phenyl)-ethylamino]-pyrimidin-4-yl}-2-methoxy-phenol], the values for the half-maximal inhibitory concentration (IC50) in assay [2] and in assay [3] were 798 nM and 931 nM, respectively.

Consider `O=C(O)c1sc(-c2cc(NCCc3c(F)cc(Br)cc3F)ncn2)cc1OCCO` [Example 32, 5-{6-[2-(4-Bromo-2,6-difluoro-phenyl)-ethylamino]-pyrimidin-4-yl}-3-(2-hydroxy-ethoxy)-thiophene-2-carboxylic acid], for which the figures for the IC50 in assay [2] and in assay [3] were 30 nM and 55 nM, respectively.

`CCOc1cc(-c2cc(NCCc3ccc(Br)cc3)ncn2)sc1C(C)O` (centres unmarked) [Example 145, 1-(5-{6-[2-(4-Bromo-phenyl)-ethylamino]-pyrimidin-4-yl}-3-ethoxy-thiophen-2-yl)-ethanol]: the figures for the half-maximal inhibitory concentration (IC50) in assay [2] and in assay [3] were 690 nM and 1120 nM, respectively.

As to `CCOc1cc(-c2cc(NCCc3ccc(Br)cc3)ncn2)sc1-c1noc(CO)n1` [Example 143, [3-(5-{6-[2-(4-Bromo-phenyl)-ethylamino]-pyrimidin-4-yl}-3-ethoxy-thiophen-2-yl)-[1,2,4]oxadiazol-5-yl]-methanol], the IC50 worked out at 344 nM in assay [2] and 604 nM in assay [3].

In the case of `CCOc1cc(-c2cc(NCCc3cc(C)c(C)cc3OC)ncn2)sc1C(=O)O` [Example 5, 3-Ethoxy-5-{6-[2-(2-methoxy-4,5-dimethyl-phenyl)-ethylamino]-pyrimidin-4-yl}-thiophene-2-carboxylic acid], the values for the IC50 in assay [2] and in assay [3] were 6 nM and 45 nM, respectively.

On to `COc1cc(-c2cc(NCCc3ccc(Br)cc3)ncn2)sc1C1(O)COC1` [Example 13, 3-(5-{6-[2-(4-Bromo-phenyl)-ethylamino]-pyrimidin-4-yl}-3-methoxy-thiophen-2-yl)-oxetan-3-ol], for which the IC50 was found to be 636 nM in assay [2] and 294 nM in assay [3].

With `O=c1[nH]c(-c2ccc(-c3cc(NCCc4ccc(Br)cc4)ncn3)cc2)no1` [Example 14, 3-(4-{6-[2-(4-Bromo-phenyl)-ethylamino]-pyrimidin-4-yl}-phenyl)-[1,2,4]oxadiazol-5(4H)-one], the 50% inhibitory concentration (IC50) in assay [2] was 262 nM; in assay [3] it was 257 nM.

With `Cn1[nH]c(=O)c2ccc(-c3cc(NCCc4ccc(Br)cc4)ncn3)cc21` [Example 9, 6-{6-[2-(4-Bromo-phenyl)-ethylamino]-pyrimidin-4-yl}-1-methyl-1,2-dihydro-indazol-3-one], the results for the IC50 in assay [2] and in assay [3] were 1080 nM and 642 nM, respectively.

In the case of `CCOc1cc(-c2cc(NCCc3c(F)cccc3F)ncn2)ccc1-c1noc(=O)[nH]1` [Example 233, 3-(4-(64(2,6-Difluorophenethypamino)pyrimidin-4-yl)-2-ethoxyphenyl)-[1,2,4]oxadiazol-5(4H)-one], the figures for the half-inhibitory concentration (IC50) in assay [1] and in assay [4] were 398 nM and 222 nM, respectively.

Consider `CCOc1cc(-c2cc(NCCc3c(OC)cc(Br)cc3OC)ncn2)ccc1C(=O)O` [Example 52, 4-{6-[2-(4-Bromo-2,6-dimethoxy-phenyl)-ethylamino]-pyrimidin-4-yl}-2-ethoxy-benzoic acid], for which the IC50 stood at 626 nM in assay [2] and 343 nM in assay [3].

For the molecule `CCCc1cc(-c2cc(NCCc3cc(C)c(C)cc3OC)ncn2)ccc1CC(=O)O` [Example 192, (4-{6-[2-(2-Methoxy-4,5-dimethyl-phenyl)-ethylamino]-pyrimidin-4-yl}-2-propyl-phenyl)-acetic acid], the IC50 in assay [1] amounted to 193 nM; in assay [4] it was 380 nM.

Consider `COC(=O)Nc1ccc(-c2cc(NCCc3c(F)cc(Br)cc3F)ncn2)cc1` [Example 313, (4-{6-[2-(4-Bromo-2,6-difluoro-phenyl)-ethylamino]-pyrimidin-4-yl}-phenyl)-carbamic acid methyl ester], for which the IC50 in assay [1] stood at 333 nM; in assay [4] it was 143 nM.
